Measurements published in patent US4629793A, “2,3-di-substituted-5,6-dihydroimidazo [2,1-b] thiazole, its salts, production thereof and anti-inflammatory agent containing the same” (Toyo Jozo Kabushiki Kaisha, priority 1981, dated 1986).

Test system: not listed separately
Assay: Anti-carrageenin edema action (oral, hind foot edema)
Type: in vivo, Wister rats
Conditions: Rattus norvegicus, po, 3 h, minimum dose with significant inhibition of edema 3 hours after carrageenin injection; p.o. one hour before carrageenin
Method: Fasting Wister rats, male, 5-6 weeks in age, five in one group, were injected subcutaneously in the sole of the caudal foot with 1% lambda carrageenin (0.05 ml), and the increase in the volume of the foot was measured at alliquot times. Then the compound of the invention was suspended in 0.3% CMC and administered orally one hour before carrageenin injection. 0.3% CMC alone was administered as a control.
In the case of `CC1=C(C(=O)Nc2ccccc2)SC2=NCCN21` [Compound 1, 2-phenylcarbamoyl-3-methyl-5,6-dihydro-imidazo [2,1-b] thiazole], the minimal effective dose is reported as 100 mg/kg. Work on `CC1=C(C(=O)Nc2ccccc2)SC2=NCCN21.Cl` [Compound 2, 2-phenylcarbamoyl-3-methyl-5,6-dihydro-imidazo [2,1-b] thiazole hydrochloride] yielded a minimal effective dose of 50 mg/kg. `CC1=C(C(=O)Nc2ccccc2Cl)SC2=NCCN21.Cl` [Compound 4, 2-(2-chlorophenylcarbamoyl)-3-methyl-5,6-dihydroimidazo [2,1-b] thiazole hydrochloride] showed a minimal effective dose of less than 25 mg/kg. With `CC1=C(C(=O)Nc2ccc(Cl)cc2)SC2=NCCN21` [Compound 5] the minimal effective dose was 50 mg/kg. Molecule `CC1=C(C(=O)Nc2cc(Cl)ccc2Cl)SC2=NCCN21` [Compound 7, 2-(2,5-dichlorophenylcarbamoyl)-3-methyl-5,6-dihydroimidazo [2,1-b] thiazole] has a minimal effective dose of 100 mg/kg. In the case of `CC1=C(C(=O)Nc2ccc(C)cc2Cl)SC2=NCCN21` [Compound 10], the minimal effective dose is reported as 50 mg/kg. For `CCc1ccccc1NC(=O)C1=C(C)N2CCN=C2S1` [Compound 11], the minimal effective dose was 50 mg/kg. `CC1=C(C(=O)Nc2ccc(Cl)cc2C)SC2=NCCN21` [Compound 13] gave a minimal effective dose of 50 mg/kg. For `CCOc1ccc(NC(=O)C2=C(C)N3CCN=C3S2)cc1` [Compound 14], the minimal effective dose was 50 mg/kg. `CC1=C(C(=O)Nc2ccc(Cl)c(Cl)c2)SC2=NCCN21.Cl` [Compound 15, 2-(3,4-dichlorophenylcarbamoyl)-3-methyl-5,6-dihydroimidazo [2,1-b] thiazole hydrochloride] gave a minimal effective dose of less than 25 mg/kg. With `CC1=C(C(=O)Nc2ccc(Br)cc2)SC2=NCCN21` [Compound 16] the minimal effective dose was 50 mg/kg. With `CC1=C(C(=O)Nc2c(Cl)cc(Cl)cc2Cl)SC2=NCCN21` [Compound 19] the minimal effective dose was 100 mg/kg. Molecule `COc1cc(OC)c(NC(=O)C2=C(C)N3CCN=C3S2)cc1Cl` [Compound 21] has a minimal effective dose of 100 mg/kg. Work on `COc1ccc(Cl)cc1NC(=O)C1=C(C)N2CCN=C2S1` [Compound 22] yielded a minimal effective dose of 100 mg/kg. `CC1=C(C(=O)Nc2ccc(Cl)c(Cl)c2)SC2=NCCN21` [Compound 30] gave a minimal effective dose of less than 25 mg/kg. Work on `CC1=C(C(=O)Nc2ccc(Cl)cc2Cl)SC2=NCCN21` [Compound 32] yielded a minimal effective dose of 50 mg/kg.

Same assay, conditions: minimum dose with significant inhibition of edema 3 hours after carrageenin injection; p.o. one hour before carrageenin
For `CC1=C(C(=O)Nc2ccc(Cl)cc2)SC2=NCCN21` [Compound 6], the Minimum effective dose was < 25 mg/kg, p.o.

Test system: not listed separately
Assay: Acute toxicity, oral
Conditions: mouse, in vivo, mice, p.o.
With `CC1=C(C(=O)Nc2ccc(Cl)c(Cl)c2)SC2=NCCN21.Cl` [Compound 15, 2-(3,4-dichlorophenylcarbamoyl)-3-methyl-5,6-dihydroimidazo [2,1-b] thiazole hydrochloride] the LD50 was greater than 4000 mg/kg.

Test system: not listed separately
Assay: Adjuvant arthritis (chronic inflammation), oral
Type: in vivo
Conditions: administered orally, rats
With `CC1=C(C(=O)Nc2ccc(Cl)c(Cl)c2)SC2=NCCN21.Cl` [Compound 15, 2-(3,4-dichlorophenylcarbamoyl)-3-methyl-5,6-dihydroimidazo [2,1-b] thiazole hydrochloride] the “inhibited adjuvant arthritis, at a dose of” value was 1 to 10 mg/kg.

Test system: not listed separately
Assay: Analgesic action, acetic acid stretching method, oral
Type: in vivo
Conditions: administered orally in mice
For `CC1=C(C(=O)Nc2ccc(Cl)c(Cl)c2)SC2=NCCN21.Cl` [Compound 15, 2-(3,4-dichlorophenylcarbamoyl)-3-methyl-5,6-dihydroimidazo [2,1-b] thiazole hydrochloride], the “analgesic action, at a dose of” value was 25 mg/kg.

Test system: bovine serum albumin
Assay: not given
Conditions: known agents, stated "in general"; cited from earlier work
In the case of `CC(C)(S)[C@@H](N)C(=O)O` [D-penicillamine], the “effect on heat denaturation of bovine serum albumin” value (“effect on heat denaturation” for short) is given as “do not inhibit the heat denaturation of bovine serum albumin but rather stimulate the protein heat denaturation”. For `Cn1cnc([N+](=O)[O-])c1Sc1ncnc2nc[nH]c12` [azathioprine], the “effect on heat denaturation” value is listed as “do not inhibit the heat denaturation of bovine serum albumin but rather stimulate the protein heat denaturation”. For `c1ccc([C@H]2CN3CCSC3=N2)cc1` [levamisol], the “effect on heat denaturation” value is listed as “do not inhibit the heat denaturation of bovine serum albumin but rather stimulate the protein heat denaturation”. In the case of gold sodium thiomalate, the “effect on heat denaturation” value is given as “do not inhibit the heat denaturation of bovine serum albumin but rather stimulate the protein heat denaturation”.
